Results from patent US12678427B2, “Combination therapy having antioxydant properties” (GENFIT, priority 2019, dated 2026).

System: Nrf2-ARE-mediated transcription
Assay: ARE Reporter - HepG2 cell line luciferase assay
Assay type: cell-based, human
Settings: ARE reporter HepG2 cells, TZ 1 μM, ELA 3 μM, 18 h exposure, significant = fold induction over DMSO above 2 and p<0.05
Procedure: The ARE Reporter—Hep G2 cell line is designed to monitor Nrf2 antioxidant response pathway. The cell contains a firefly luciferase gene under the control of ARE (antioxidant response element) stably integrated into Hep G2 cells.
ARE reporter—HepG2 cells (BPS Bioscience, Inc., San Diego, cat #60513) were cultured following manufacturer's instructions. After thawing (BPS thaw medium 1K, cat #60187), cells were cultured in growth-medium (BPS growth medium 1K, cat #79533) and subsequently plated at a density of 40 000 cells per well in a 96-well microplate in 45 μL of assay medium (BPS thaw medium). TZ, ELA and DL-Sulforaphane (Sigma cat #S4441) were dissolved in DMSO and diluted into assay medium. 5 μl of dilution were added on cells to reach a final concentration of 1 μM for TZ and 3 μM for ELA. DL-Sulforaphane was used as a positive control at the dose of 3 μM. After 18 h exposure, luciferase activity was determined. 50 μL of One-Step Luciferase assay system (BPS cat #60690) were added per well and after ~15 min of rocking at room temperature, luminescence was measured using a luminometer.
Fold induction over DMSO above 2 and with a p-value <0.05 was considered as significant.

Question: How did the “activation of Nrf2-antioxidant pathway compared to the untreated condition” value turn out when `O=C(Nc1ncc([N+](=O)[O-])s1)c1ccccc1O` [TZ] was run?
Answer: induces a significant activation
